Assay results taken from patent US20240287062A1, “NAPHTHYRIDONE COMPOUNDS FOR INHIBITION OF RAF KINASES AND/OR BCR-ABL TYROSINE KINASES” (Enliven Inc., priority 2021, published 2024).
Read-outs that look alike come from different tables or passages of the source.

Key:
Assay type in all cases: cell-based
A375 (BRAF V600E) = experiment: Cell viability assay (CellTiter Glo)
Description: (§1) Cell viability was measured in the following MAPK pathway mutant cancer cell lines: A375 (BRAF V600E), HepG2 (NRAS Q61L), SK-MEL-30 (NRAS Q61K), and OCI-AML-2 (MBNL1-CRAF fusion). Cell viability was also measured in K562 cells.
(§2) A375, HepG2, SK-MEL-30 and OCI-AML-2 cells were grown in the appropriate growth medium as described in Table B2 below, and harvested at 50-80% confluence. Cells were counted and seeded at their appropriate density (see Table B1) in a 384-well plate (Corning 3570). A375, HepG2 and SK-MEL-30 were allowed to adhere overnight prior to treatment and the OCI-AML-2 were treated immediately for the indicated drug treatment times (Table 6).
(§3) Table 6 provides the growth media, number of cells seeded per well and drug treatment times for the each cell line. K562 cells were grown as described in Example B1 above.
(§4) Compounds were dissolved in DMSO and serially diluted. Serially-diluted compound or a DMSO only control (high control, “HC”) was added to the plated cells in each well. Compounds were tested at concentrations of about 10 μM to 0.51 nM, using three-fold dilutions. The final proportion of DMSO never exceeded 0.1%.
(§5) Plates were placed in a 37° C., […] incubator for the indicated treatment times (Table B1). Plates were then removed from the incubator and equilibrated for 15 minutes at room temperature. 40 μl of CellTiter Glo reagent (Promega) was added to measure the relative level of metabolically active cells by quantifying intracellular ATP concentrations. Plates were incubated for 30 minutes at room temperature, and luminescence was measured. Percent viability was normalized to a vehicle control only using the following formula: 0 viability=100×(LumSample−LumLC)/(LumHC−LumLC). Graphical curves were fitted using a nonlinear regression model with a sigmoidal dose response.

HepG2 (NRAS Q61L) = experiment: Cell viability assay (CellTiter Glo); conditions: HepG2, 750 cells per well, read-out: BRAF Cytotoxicity (IC50, nM) HEPG2
Description: as §1, §2, §3, §4, §5

[1] = test system: OCI-AML-2 (MBNL1-CRAF fusion); experiment: Cell viability assay (CellTiter Glo); conditions: OCI-AML-2, 1000 cells per well, read-out: BRAF Cytotoxicity (IC50, nM) OCI-AML-2
Description: as §1, §2, §3, §4, §5

SK-MEL-30 (NRAS Q61K) = experiment: Cell viability assay (CellTiter Glo); conditions: SK-MEL-30, 750 cells per well, read-out: BRAF Cytotoxicity (IC50, nM) SK-MEL-30
Description: as §1, §2, §3, §4, §5

K562 cells = experiment: Cell viability assay (CellTiter Glo); conditions: K562 cells grown as in Example B1, read-out: BRAF Cytotoxicity (IC50, nM) K562
Description: K562 cells, cultured in Iscove's Modified Dulbecco's Media (IMDM) supplemented with 10% FBS, were harvested at 50-80% confluency and plated at 2,000 cells per well in 384-well tissue culture plates. A subset of wells contained media only (low control, LC). Compounds were serially diluted in DMSO. 40 nL of compound or DMSO only (high control, HC) were added to each well using an Echo 550 liquid handler (Labcyte). The plates were placed in a 37° C. incubator with 5% CO2 for 72 hours. Cell viability was measured using a CellTiter-Glo luminescent cell viability assay (Promega), which allows for relative quantification of metabolically active cells by luminescence-based measurements of intracellular ATP concentrations. Briefly, plates were removed from the incubator and equilibrated for 15 minutes at room temperature prior to the addition of 40 μL of CellTiter-Glo reagent. Plates were then incubated for 30 minutes at room temperature. Luminescence was measured using an EnSpire plate reader (Perkin Elmer). As noted above, luminescence values from wells with DMSO only or media without cells were used as high and low controls (HC and LC), respectively. Normalized percent viability was calculated as follows: percent viability=100×(LumSample−LumLC)/(LumHC−LumLC). IC50 values were calculated using the XLFit software.
as §1, §3, §4, §5

[2] = test system: phosphorylated ERK (pERK); experiment: Detection of phosphorylated ERK (pERK), AlphaLISA in A375 cells; conditions: four hours incubation, inhibition of ERK phosphorylation, read-out: PERK ELISA (IC50)
Description: A375 cells were counted and seeded at 10,000 cells/well in 384 well plates (Corning 3764) and allowed to adhere overnight.
Compounds were dissolved and serially diluted in DMSO. The compounds were then added, mixed, and incubated for four hours at 37° C., 5% CO2. Compounds were added using four-fold dilutions at final concentrations ranging from 10 μM to 0.01 nM. DMSO only and 10 uM staurosporine were added as high and low controls.
Following the four-hour incubation with compounds, cell lysates were prepared and AlphaLISA assay measuring phosphorylated ERK was performed. Media was removed using the Apricot Designs pipettor. Lysis buffer was made from 1× AlphaLISA SureFire Assay Kit (AlphaLISA SureFire Ultra pERK 12 (Thr202/Tyr204) ALSU-PERK-A50K) lysis buffer with protease and phosphatase inhibitors. Cells were lysed by adding 10 uL to all the wells and mixed for 40 minutes on a plate shaker. 10 uL cell lysate was transferred to a new Optiplate (PerkinElmer 6007290) and incubated with 5 uL 1× acceptor mix for 2 hours in the dark. 5 uL of 1× donor mix was added to all wells and mixed by shaking followed by overnight incubation in the dark.
pERK AlphaLISA signal was read on the Envision using standard AlphaLISA settings. Percent inhibition of ERK phosphorylation was calculated by % Inhibition=100×(LumHC−LumSample)/(LumHC−LumLC). The low and high controls (LC/HC) are generated from lysate from wells with cells treated with DMSO or […] Staurosporine (BioAustralis, cat #BIA-S1086), […]. IC50 values were calculated by fitting the Curve using XLfit (v5.3.1.3), equation 201: Y=Bottom+(Top−Bottom)/(1+10^((Log IC50−X)*HillSlope)).

[3] = Homo sapiens, A-375, 72 h, A375, 250 cells seeded per well, read-out: BRAF Cytotoxicity (IC50, nM) A375 (250 cells)
[4] = Homo sapiens, A-375, 72 h, A375, 1000 cells seeded per well, read-out: BRAF Cytotoxicity (IC50, nM) A375 (1000 cells)

| Structure (SMILES) | IC50 [2] | IC50 ([2]; Homo sapiens, A-375, 4 h) | IC50 (A375 (BRAF V600E); [3]) | IC50 (HepG2 (NRAS Q61L); Homo sapiens, HepG2, 120 h) | IC50 ([1]; Homo sapiens, OCI-AML2, 72 h) | IC50 (SK-MEL-30 (NRAS Q61K); Homo sapiens, SK-MEL-30, 120 h) | IC50 (K562 cells; Homo sapiens) | IC50 (A375 (BRAF V600E); A375, 1000 cells seeded per well, 72 hours, read-out: BRAF Cytotoxicity (IC50, nM) A375 (1000 cells)) | IC50 (HepG2 (NRAS Q61L); 120 hours) | IC50 ([1]; 72 hours) | IC50 (SK-MEL-30 (NRAS Q61K); 120 hours) | IC50 (K562 cells) | IC50 (A375 (BRAF V600E); [4]) |
| --- | --- | --- | --- | --- | --- | --- | --- | --- | --- | --- | --- | --- | --- |
| CC[C@H](O)c1cc(C)c(-c2cc3cnc(NC(=O)C4CC4)cc3n(C)c2=O)cn1 [Compound 69, N-(3-[6-[(1S)-1-hydroxypropyl]-4-methylpyridin-3-yl]-1-methyl-2-oxo-1,6-naphthyridin-7-yl)cyclopropanecarboxamide] |  | 43.1 nM | 372 nM | 107 nM | 485 nM | 517 nM | 496 nM |  |  |  |  |  | 354 nM |
| CC[C@H](O)c1cc(C)c(-c2cc3cnc(NC(=O)[C@H]4C[C@H]4F)cc3n(C)c2=O)cn1 [Compound 108, (1R,2R)-2-fluoro-N-(3-(6-((S)-1-hydroxypropyl)-4-methylpyridin-3-yl)-1-methyl-2-oxo-1,2-dihydro-1,6-naphthyridin-7-yl)cyclopropane-1-carboxamide] |  | 17.4 nM | 422 nM | 88.7 nM | 309 nM | 311 nM | 1980 nM |  |  |  |  |  | 308 nM |
| CCCC(=O)c1cc(C)c(-c2cc3cnc(NC(=O)[C@@H]4C[C@@H]4F)cc3n(C)c2=O)cn1 [Compound 152, (1S,2S)—N-(3-(6-butyryl-4-methylpyridin-3-yl)-1-methyl-2-oxo-1,2-dihydro-1,6-naphthyridin-7-yl)-2-fluorocyclopropane-1-carboxamide] |  | 8.99 nM | 116 nM | 257 nM | 412 nM | 585 nM | 534 nM |  |  |  |  |  |  |

More lines, main results first:

| IC50 [2] | IC50 ([2]; Homo sapiens, A-375, 4 h) | Structure (SMILES) | IC50 (A375 (BRAF V600E); [3]) | IC50 (HepG2 (NRAS Q61L); Homo sapiens, HepG2, 120 h) | IC50 ([1]; Homo sapiens, OCI-AML2, 72 h) | IC50 (SK-MEL-30 (NRAS Q61K); Homo sapiens, SK-MEL-30, 120 h) | IC50 (K562 cells; Homo sapiens) | IC50 (A375 (BRAF V600E); A375, 1000 cells seeded per well, 72 hours, read-out: BRAF Cytotoxicity (IC50, nM) A375 (1000 cells)) | IC50 (HepG2 (NRAS Q61L); 120 hours) | IC50 ([1]; 72 hours) | IC50 (SK-MEL-30 (NRAS Q61K); 120 hours) | IC50 (K562 cells) | IC50 (A375 (BRAF V600E); [4]) |
| --- | --- | --- | --- | --- | --- | --- | --- | --- | --- | --- | --- | --- | --- |
| 7.23 nM |  | CCCC(O)c1cc(C)c(-c2cc3cnc(NC(C)=O)cc3n(C)c2=O)cn1 (single isomer, unassigned) [Example S67, Enantiomer A, N-(3-{6-[1-hydroxybutyl]-4-methylpyridin-3-yl}-1-methyl-2-oxo-1,6-naphthyridin-7-yl)acetamide] | 215 nM | 252 nM | 1390 nM | 974 nM | 9480 nM |  |  |  |  |  |  |
| 47.4 nM |  | CCC(O)c1cc(C)c(-c2cc3cnc(NC(=O)[C@@H]4C[C@@H]4F)cc3n(C)c2=O)cn1 (single isomer, unassigned; isomer a) [Example S40, Isomer A] |  |  |  |  |  | 492 nM | 211 nM | 496 nM | 446 nM | 1230 nM |  |
